# Molecular target: T1, glucose-6-phosphatase system (Rattus norvegicus, UniProt F7EWB7)
# T1 construct: from tissue; host or cells: liver microsomes, male Wistar rats
# T1 sequence (F7EWB7 1-429): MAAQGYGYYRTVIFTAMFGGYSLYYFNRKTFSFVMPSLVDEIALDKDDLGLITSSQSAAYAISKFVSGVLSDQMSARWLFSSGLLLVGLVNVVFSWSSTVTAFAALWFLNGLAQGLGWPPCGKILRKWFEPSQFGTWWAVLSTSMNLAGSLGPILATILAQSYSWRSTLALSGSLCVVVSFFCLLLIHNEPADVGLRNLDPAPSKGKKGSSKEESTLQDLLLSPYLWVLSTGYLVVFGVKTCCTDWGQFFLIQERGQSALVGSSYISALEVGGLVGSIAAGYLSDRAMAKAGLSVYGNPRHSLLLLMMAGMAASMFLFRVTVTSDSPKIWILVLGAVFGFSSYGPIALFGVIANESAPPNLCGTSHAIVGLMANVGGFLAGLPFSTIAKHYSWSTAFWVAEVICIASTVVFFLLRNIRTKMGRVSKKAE
# Assay: enzyme test using liver microsomes: phosphate liberated from glucose-6-phosphate
# Format: biochemical, male Wistar rats
# Conditions: rat liver microsome fraction; glucose-6-phosphate 1 mmol/l; HEPES pH 7.0; room temperature, 20 minutes
# Description: The effect of the novel compounds on the glucose-6-phosphatase system was investigated in an enzyme test using liver microsomes.
# 0.1 ml of test mixture contained glucose-6-phosphate (1mmol/l), the test substance, 0.1 mg of microsome fraction and 100 mmol/l HEPES buffer (4-(2-hydroxyethyl)piperazine-1-ethanesulfonic acid), pH 7.0. The reaction was started by adding the enzyme. After proceeding at room temperature for 20 minutes, the reaction was stopped by adding 0.2 ml of phosphate reagent. The sample was incubated at 37° C. for 30 minutes and the absorption (A) of the blue color was then measured at 570 nm.
row,SMILES,IC50
1,CS(=O)(=O)NC(=O)C1(OCC2CC2c2ccc(Cl)cc2)CC(O)C(O)C(OC(=O)C=C(c2ccccc2)n2cnc3ccccc32)C1 (stereo not shown) [Compound 4],20 nM
2,O=C(/C=C(/c1ccccc1)n1cnc2ccccc21)O[C@@H]1C[C@](OC[C@@H]2C[C@@H]2c2ccc(Cl)cc2)(C(=O)NS(=O)(=O)c2ccc3ccccc3c2)C[C@@H](O)[C@H]1O [Compound 9],300 nM
3,O=C(/C=C(/c1ccccc1)n1cnc2ccccc21)O[C@@H]1C[C@](OC[C@@H]2C[C@@H]2c2ccc(Cl)cc2)(c2nnn[nH]2)C[C@@H](O)[C@H]1O [Compound 19],800 nM

# Test system: glucose-6-phosphatase
# Assay: not given
# Conditions: literature statement; cited from earlier work
row,SMILES,inhibition of glucose-6-phosphatase (in words)
1,CC(=O)Oc1ccccc1C=Cc1ccccc1N=C=S [2-isothiocyanato-2'-acetoxystilbene],non-specific inhibitors
2,"O=C(O)c1cc(SSc2ccc([N+](=O)[O-])c(C(=O)O)c2)ccc1[N+](=O)[O-] [5,5'-dithiobis-2-nitrobenzoic acid]",non-specific inhibitors
3,"S=C=Nc1ccccc1C=Cc1ccccc1N=C=S [2,2'-diisothiocyanatostilbene]",non-specific inhibitors
4,O=C(CCc1ccc(O)cc1)c1c(O)cc(O)cc1O[C@@H]1O[C@H](CO)[C@@H](O)[C@H](O)[C@H]1O [phlorrhizin],non-specific inhibitors

# Reference: patent publication US5567725A, “Substituted cyclohexanol esters, their use for treating diseases, and pharmaceutical preparations” (Hoechst Aktiengesellschaft, priority 1994, dated 1996)
